According to US20170216252A1, “ANTI-BACTERIAL PYRUVATE KINASE MODULATOR COMPOUNDS, COMPOSITIONS, USES AND METHODS” (SIMON FRASER UNIVERSITY, priority 2014, published 2017):
pEC50, pIC50: −log10 of the molar value. Values after ≈ are worked out from the molar mass of the structure shown. Where two headings read alike, the source gives them in different places.

Columns and labels:
S. aureus ATCC 29213 = test: In vitro susceptibility, broth microdilution MIC; assay type: cell-based, Staphylococcus aureus; conditions: for MIC: Staphylococcus aureus, read-out: MIC
Procedure, shortened: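 The MIC against S. aureus 29213 was determined by CLSI 2-fold serial broth microdilution in Mueller Hinton broth. Plates were incubated for 18–24 h at 37 °C and read at OD600 with background subtracted. The MIC was the lowest concentration giving complete growth inhibition versus compound-free wells.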

MRSA PK = target: T1, MRSA PK (Staphylococcus aureus, UniProt Q6GG09); test: MRSA PK activity, continuous LDH-coupled assay; assay type: biochemical, S. aureus (MRSA strain Sanger 252); conditions: for fold more potent: compared to 10a
T1 construct: His tag (pET-28a(+) vector) (N); made in house; host or cells: E. coli BL-21 (DE3)
Procedure, shortened: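 Purified His-tagged MRSA PK (15 nM, E. coli-expressed) started reactions run up to 5 min at 30 °C. Activity was followed continuously by LDH-coupled NADH oxidation at 340 nm, with DMSO ≤1%. IC50 came from four-parameter variable-slope fits.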

[1] = ATCC29213, Tables 1-6 and text, minimum concentration to give >98% inhibition of growth
[2] = Tables 1-6, 2 mM ADP, 10 mM PEP, 15 nM PK, read-out: IC50
[3] = read-out: % inhibition at the highest concentration tested (IC50)
[4] = ATCC29213, Table 8, tested at least in duplicate, differing values all given

T1 sequence (Q6GG09 whole entry): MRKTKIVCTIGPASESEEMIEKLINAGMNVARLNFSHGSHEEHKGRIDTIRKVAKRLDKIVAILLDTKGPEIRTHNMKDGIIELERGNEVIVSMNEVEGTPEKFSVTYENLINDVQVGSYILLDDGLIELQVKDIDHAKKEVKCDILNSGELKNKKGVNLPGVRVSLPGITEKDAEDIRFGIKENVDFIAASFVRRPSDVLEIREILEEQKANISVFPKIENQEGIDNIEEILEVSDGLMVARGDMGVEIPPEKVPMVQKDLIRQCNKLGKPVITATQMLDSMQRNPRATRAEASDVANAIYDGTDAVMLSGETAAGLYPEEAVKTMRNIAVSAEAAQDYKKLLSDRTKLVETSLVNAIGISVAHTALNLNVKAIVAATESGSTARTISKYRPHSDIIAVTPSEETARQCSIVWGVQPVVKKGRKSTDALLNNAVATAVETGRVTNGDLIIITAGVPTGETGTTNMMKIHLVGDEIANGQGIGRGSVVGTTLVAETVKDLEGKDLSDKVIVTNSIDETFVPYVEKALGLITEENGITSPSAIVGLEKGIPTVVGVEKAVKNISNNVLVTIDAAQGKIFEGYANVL

| SMILES | MIC (S. aureus ATCC 29213; [1]) [µg/mL] | melting point | pIC50 (MRSA PK; [2]) | pIC50 (MRSA PK) | other results |
| --- | --- | --- | --- | --- | --- |
| COCn1c(-c2cc3ccc(Br)cc3[nH]2)cc2cc(Br)ccc21 [Compound 12c, 5,6′-Dibromo-1-(methoxymethyl)-1H,1′H-2,2′-biindole] | > 64 | 199 to 201 °C | 8.72 |  |  |
| Cn1c(-c2cc3cc(Br)ccc3[nH]2)cc2ccc(Br)cc21 [Compound 12b, 5′,6-Dibromo-1-methyl-1H,2′H-2,2′-biindole] |  | 192 to 194 °C |  |  | inhibition at 10 µM (MRSA PK; [3]): 25% |
| Brc1ccc2cc(-c3ccc(-c4cc5ccccc5[nH]4)cc3)[nH]c2c1 [Compound 33c, 2-(4-(1H-indol-2-yl)phenyl)-6-bromo-1H-indole] | > 64 | > 300 °C | 8.25 |  |  |
| Fc1ccc2[nH]c(-c3cc4ccc(Br)cc4[nH]3)cc2c1 [Compound 10e, 6′-Bromo-5-fluoro-1H,1′H-2,2′-biindole] | 0.3 (≈ 0.911 µM) | 246 to 248 °C | 8.55 |  |  |
| Brc1ccc2c(c1)cc(-c1cc3ccc(Br)cc3[nH]1)n2CCN1CCCCC1 [Compound 72, 5,6′-dibromo-1-(2-(piperidin-1-yl)ethyl)-1H,1′H-2,2′-biindole] | > 64 | 102 to 104 °C |  | 8.43 |  |
| Brc1ccc2cc(-c3cccc(-c4cc5ccccc5[nH]4)c3)[nH]c2c1 [Compound 33f, 2-(3-(1H-indol-2-yl)phenyl)-6-bromo-1H-indole] |  | 224 to 226 °C |  |  | inhibition at 10 µM (MRSA PK; [3]): 36% |
| Brc1ccc2[nH]c(-c3cc4ccccc4o3)cc2c1 [Compound 22e, 2-(Benzofuran-2-yl)-5-bromo-1H-indole] |  | 236 to 238 °C |  |  | inhibition at 10 µM (MRSA PK; [3]): 45% |
| Brc1ccc2[nH]c(-c3nc4ccccc4s3)cc2c1 [Compound 22d, 2-(5-Bromo-1H-indol-2-yl)benzo[d]thiazole] | > 64 | 208 to 210 °C | 6.45 |  |  |
| O=C(Cn1c(-c2cc3ccc(Br)cc3[nH]2)cc2cc(Br)ccc21)N1CCOCC1 [Compound 15, 2-(5,6′-dibromo-1H,1′H-[2,2′-biindol]-1-yl)-1-morpholinoethanone] | > 64 | 320 to 322 °C | 8.22 |  |  |
| Brc1ccc2cc(-c3cc4ccccc4[nH]3)[nH]c2c1 [Compound 10a, 6-Bromo-1H,1′H-2,2′-biindole] | 2 (≈ 6.43 µM) | 199 to 201 °C | 7.67 |  | fold more potent in the MIC assay (S. aureus ATCC 29213; compared to 10b): about 8 fold |
| Brc1ccc2cc(-c3cc4ccccc4s3)[nH]c2c1 [Compound 22c, 2-(Benzo[b]thiophen-2-yl)-6-bromo-1H-indole] | > 64 | 250 to 252 °C | 7.85 |  |  |
| O=C(O)Cn1c(-c2cc3ccc(Br)cc3[nH]2)cc2cc(Br)ccc21 [Compound 14, 2-(5,6′-Dibromo-1H,1′H-[2,2′-biindol]-1-yl)acetic acid] | > 64 | 321 to 323 °C | 7.95 |  |  |
| Brc1ccc2cc(C#Cc3cc4ccccc4[nH]3)[nH]c2c1 [Compound 25a, 2-((1H-indol-2-yl)ethynyl)-6-bromo-1H-indole] | > 64 | 240 to 242 °C | 8.15 |  | fold more potent (MRSA PK): 3 fold |
| Brc1ccc2[nH]c(-c3cc4ccccc4s3)cc2c1 [Compound 22f, 2-(Benzo[b]thiophen-2-yl)-5-bromo-1H-indole] | > 64 | 269 to 271 °C |  |  | inhibition at 1 µM (MRSA PK; [3]): 42% |
| COc1ccc2[nH]c(-c3cc4ccc(Br)cc4[nH]3)cc2c1 [Compound 10f, 6′-Bromo-5-methoxy-1H,1′H-2,2′-biindole] | > 64 | 240 to 241 °C | 8.60 |  |  |
| Brc1ccc2cc(-c3cc4cc(-c5ccccc5)ccc4[nH]3)[nH]c2c1 [Compound 10g, 6′-Bromo-5-phenyl-1H,1′H-2,2′-biindole] | > 64 | 237 to 239 °C | 8.66 |  |  |
| O=C(Nc1ccc(Br)cc1)c1[nH]c2cc(Br)ccc2c1C(=O)O [Compound 132, 6-Bromo-2-((4-bromophenyl)carbamoyl)-1H-indole-3-carboxylic acid] |  |  |  | > 7.30 | MIC (S. aureus ATCC 29213; [4]): 16 µg/mL (≈ 36.5 µM) |

| SMILES | MIC (S. aureus ATCC 29213; [1]) [µg/mL] | melting point | pIC50 (MRSA PK; [2]) | pIC50 (MRSA PK) | other results |
| --- | --- | --- | --- | --- | --- |
| CC(=O)c1c(/C=C/c2ccccc2)[nH]c2cc(Br)ccc12 [Compound 38a, (E)-1-(6-bromo-2-styryl-1H-indol-3-yl)ethanone] | > 64 |  |  | < 4.70 |  |
| O=C(Nc1cc(Br)ccc1O)c1cc2ccc(Br)cc2[nH]1 [Compound 62, 6-Bromo-N-(5-bromo-2-hydroxyphenyl)-1H-indole-2-carboxamide] | > 64 |  |  | 7.91 |  |
| Brc1ccc2[nH]c(CCc3cc4ccc(Br)cc4[nH]3)cc2c1 [Compound 28b, 6-bromo-2-(2-(5-bromo-1H-indol-2-yl)ethyl)-1H-indole] | > 64 | 208 to 210 °C | 8.20 |  |  |
| O=C(Nc1nc2ccc(Br)cc2s1)c1cc(Br)cc(Br)c1O [Compound 85, 3,5-dibromo-N-(6-bromobenzo[d]thiazol-2-3/1)-2-hydroxybenzamide] | 1 (≈ 1.97 µM) |  |  | 8.39 |  |
| Brc1ccc2cc(/C=C/c3ccccc3)[nH]c2c1 [Compound 36a, (E)-6-bromo-2-styryl-1H-indole] | > 64 |  |  | 7.60 |  |
| FC(F)(F)c1ccc(/C=C/c2cc3ccc(Br)cc3[nH]2)cc1 [Compound 102, (E)-6-Bromo-2-(4-(trifluoromethyl)styryl)-1H-indole] |  |  |  | 6.00 to 7.00 | MIC (S. aureus ATCC 29213; [4]): 64 µg/mL (≈ 175 µM) |
| COC(=O)c1cc(Br)cc2[nH]c(/C=C/c3ccc(Cl)cc3)cc12 [Compound 157, (E)-Methyl 6-bromo-2-(4-chlorostyryl)-1H-indole-4-carboxylate] |  |  |  | < 6.00 | MIC (S. aureus ATCC 29213; [4]): > 64 µg/mL |
| Oc1ccc(Br)cc1-c1ccnc(-c2cc3ccc(Br)cc3[nH]2)c1 [Compound 86, 4-bromo-2-(2-(6-bromo-1H-indol-2-yl)pyridin-4-yl)phenol] | > 64 |  |  |  | inhibition at 10 µM (MRSA PK; [3]): 62% |
| COC(=O)c1c(C(=O)Nc2ccc(Cl)nc2)[nH]c2cc(Br)ccc12 [Compound 138, Methyl 6-bromo-2-((6-chloropyridin-3-yl)carbamoyl)-1H-indole-3-carboxylate] |  |  |  | > 7.30 | MIC (S. aureus ATCC 29213; [4]): > 64 µg/mL |
| Clc1ccc2[nH]c(-c3cc4ccc(Br)cc4[nH]3)cc2c1 [Compound 10d, 6′-Bromo-5-chloro-1H,1′H-2,2′-biindole] | 0.3 (≈ 0.868 µM) | 257 to 259 °C | 8.70 |  |  |
| Brc1ccc2[nH]c(-c3nc4ccc(Br)cc4s3)cc2c1 [Compound 22g, 6-Bromo-2-(5-bromo-1H-indol-2-yl)benzo[d]thaizole] | > 64 | 246 to 248 °C | 8.39 |  | fold more potent (MRSA PK): about 5 fold |
| COc1ccc(NC(=O)c2[nH]c3cc(Br)ccc3c2C(=O)O)cn1 [Compound 136, 6-Bromo-2-((6-methoxypyridin-3-yl)carbamoyl)-1H-indole-3-carboxylic acid] |  |  |  | 6.00 to 7.00 | MIC (S. aureus ATCC 29213; [4]): > 64 µg/mL |
| Clc1ccc(/C=C/c2cc3ccc(Br)cc3[nH]2)cn1 [Compound 98, (E)-6-Bromo-2-(2-(6-chloropyridin-3-yl)vinyl)-1H-indole] |  |  |  | > 7.30 | MIC (S. aureus ATCC 29213; [4]): > 64 µg/mL |
| Cn1c(C#Cc2cc3ccc(Br)cc3[nH]2)cc2ccc(Br)cc21 [Compound 26a, 6-bromo-2-((6-bromo-1H-indol-2-yl)ethynyl)-1-methyl-1H-indole] | > 64 |  | 7.86 |  |  |
| Brc1cc2cc(-c3cc4ccccc4[nH]3)[nH]c2cc1Br [Compound 10j, 5,6-Dibromo-1H,1′H-2,2′-biindole] |  | 233 °C (dec.) |  |  | inhibition at 10 µM (MRSA PK; [3]): 39% |
| COC(=O)c1c(C(=O)Nc2ccc(Br)cc2)[nH]c2cc(Br)ccc12 [Compound 131, Methyl 6-bromo-2-((4-bromophenyl)carbamoyl)-1H-indole-3-carboxylate] |  |  |  |  | MIC (S. aureus ATCC 29213; [4]): > 64 µg/mL; pEC50 (MRSA PK): 7.82 |
| O=C(c1c(/C=C/c2ccc(Cl)cc2)[nH]c2cc(Br)c(F)cc12)C(F)(F)F [Compound 175, (E)-1-(6-Bromo-2-(4-chlorostyryl)-5-fluoro-1H-indol-3-yl)-2,2,2-trifluoroethanone] |  |  |  | 6.00 to 7.00 | MIC (S. aureus ATCC 29213; [4]): 2 µg/mL (≈ 4.48 µM) |
